{"source": "the supplement of paper PMC10733146", "test_in_all_cases": "viability relative to DMSO control (fraction); higher = less drug effect (more viable cells)", "settings_in_all_cases": "48 h", "key": {"[1]": {"system": "primary ALL patient cells (S048)", "in_short": "(§1)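 Viability is given as CellTiter-Glo luminescence relative to the median of 16 inner DMSO wells. Fresh or cryopreserved primary mononuclear tumour cells from blood, bone marrow (both Ficoll-isolated) or processed lymph node were plated at 4 × 10^4 cells per well in 384-well plates against five pre-plated compound concentrations, one well each. Incubation lasted 48 h at 37 °C and 5% CO2 in RPMI-1640 with penicillin/streptomycin, L-glutamine and human serum.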"}, "[2]": {"system": "primary ALL patient cells (S088)", "in_short": "as §1"}, "[3]": {"system": "primary AML patient cells (S006)", "in_short": "as §1"}, "[4]": {"system": "primary AML patient cells (S011)", "in_short": "as §1"}, "[5]": {"system": "primary AML patient cells (S012)", "in_short": "as §1"}, "[6]": {"system": "primary AML patient cells (S017)", "in_short": "as §1"}, "[7]": {"system": "primary AML patient cells (S021)", "in_short": "as §1"}, "[8]": {"system": "primary AML patient cells (S056)", "in_short": "as §1"}, "[9]": {"system": "primary AML patient cells (S060)", "in_short": "as §1"}, "[10]": {"system": "primary AML patient cells (S081)", "in_short": "as §1"}, "[11]": {"system": "primary AML patient cells (S085)", "in_short": "as §1"}, "[12]": {"system": "primary B-PLL patient cells (S016)", "in_short": "as §1"}, "[13]": {"system": "primary BL patient cells (S005)", "in_short": "as §1"}, "[14]": {"system": "primary CLL patient cells (S031)", "in_short": "as §1"}, "[15]": {"system": "primary CLL patient cells (S043)", "in_short": "as §1"}, "[16]": {"system": "primary FL patient cells (S022)", "in_short": "as §1"}, "[17]": {"system": "primary FL patient cells (S087)", "in_short": "as §1"}, "[18]": {"system": "primary MCL patient cells (S053)", "in_short": "as §1"}, "[19]": {"system": "primary MCL patient cells (S063)", "in_short": "as §1"}, "[20]": {"system": "primary MCL patient cells (S068)", "in_short": "as §1"}}}
{"smiles": "C/C=C1\\NC(=O)[C@H]2CSSCC/C=C/[C@H](CC(=O)N[C@H](C(C)C)C(=O)N2)OC(=O)[C@H](C(C)C)NC1=O", "note": "[Romidepsin]", "values": [{"measurement": "viability", "setting": "[1]; 0.00032 µM", "value": 0.791}, {"measurement": "viability", "setting": "[1]; 0.0016 µM", "value": 0.184}, {"measurement": "viability", "setting": "[1]; 0.008 µM", "value": 0.0722}, {"measurement": "viability", "setting": "[1]; 0.04 µM", "value": 0.0497}, {"measurement": "viability", "setting": "[1]; 0.2 µM", "value": 0.0502}, {"measurement": "viability", "setting": "[2]; 0.00032 µM", "value": 0.851}, {"measurement": "viability", "setting": "[2]; 0.0016 µM", "value": 0.577}, {"measurement": "viability", "setting": "[2]; 0.008 µM", "value": 0.123}, {"measurement": "viability", "setting": "[2]; 0.04 µM", "value": 0.0858}, {"measurement": "viability", "setting": "[2]; 0.2 µM", "value": 0.0855}, {"measurement": "viability", "setting": "[3]; 0.00032 µM", "value": 1}, {"measurement": "viability", "setting": "[3]; 0.0016 µM", "value": 0.911}, {"measurement": "viability", "setting": "[3]; 0.008 µM", "value": 0.477}, {"measurement": "viability", "setting": "[3]; 0.04 µM", "value": 0.127}, {"measurement": "viability", "setting": "[3]; 0.2 µM", "value": 0.0886}, {"measurement": "viability", "setting": "[4]; 0.00032 µM", "value": 0.935}, {"measurement": "viability", "setting": "[4]; 0.0016 µM", "value": 0.727}, {"measurement": "viability", "setting": "[4]; 0.008 µM", "value": 0.507}, {"measurement": "viability", "setting": "[4]; 0.04 µM", "value": 0.373}, {"measurement": "viability", "setting": "[4]; 0.2 µM", "value": 0.345}, {"measurement": "viability", "setting": "[5]; 0.00032 µM", "value": 1.1}, {"measurement": "viability", "setting": "[5]; 0.0016 µM", "value": 1.01}, {"measurement": "viability", "setting": "[5]; 0.008 µM", "value": 0.722}, {"measurement": "viability", "setting": "[5]; 0.04 µM", "value": 0.0806}, {"measurement": "viability", "setting": "[5]; 0.2 µM", "value": 0.0665}, {"measurement": "viability", "setting": "[6]; 0.00032 µM", "value": 1.02}, {"measurement": "viability", "setting": "[6]; 0.0016 µM", "value": 0.866}, {"measurement": "viability", "setting": "[6]; 0.008 µM", "value": 0.29}, {"measurement": "viability", "setting": "[6]; 0.04 µM", "value": 0.302}, {"measurement": "viability", "setting": "[6]; 0.2 µM", "value": 0.332}, {"measurement": "viability", "setting": "[7]; 0.00032 µM", "value": 0.88}, {"measurement": "viability", "setting": "[7]; 0.0016 µM", "value": 0.789}, {"measurement": "viability", "setting": "[7]; 0.008 µM", "value": 0.353}, {"measurement": "viability", "setting": "[7]; 0.04 µM", "value": 0.269}, {"measurement": "viability", "setting": "[7]; 0.2 µM", "value": 0.222}, {"measurement": "viability", "setting": "[8]; 0.00032 µM", "value": 0.924}, {"measurement": "viability", "setting": "[8]; 0.0016 µM", "value": 0.89}, {"measurement": "viability", "setting": "[8]; 0.008 µM", "value": 0.156}, {"measurement": "viability", "setting": "[8]; 0.04 µM", "value": 0.0512}, {"measurement": "viability", "setting": "[8]; 0.2 µM", "value": 0.0574}, {"measurement": "viability", "setting": "[9]; 0.00032 µM", "value": 1.07}, {"measurement": "viability", "setting": "[9]; 0.0016 µM", "value": 1.05}, {"measurement": "viability", "setting": "[9]; 0.008 µM", "value": 0.464}, {"measurement": "viability", "setting": "[9]; 0.04 µM", "value": 0.0458}, {"measurement": "viability", "setting": "[9]; 0.2 µM", "value": 0.045}, {"measurement": "viability", "setting": "[10]; 0.00032 µM", "value": 0.976}, {"measurement": "viability", "setting": "[10]; 0.0016 µM", "value": 0.947}, {"measurement": "viability", "setting": "[10]; 0.008 µM", "value": 0.283}, {"measurement": "viability", "setting": "[10]; 0.04 µM", "value": 0.0359}, {"measurement": "viability", "setting": "[10]; 0.2 µM", "value": 0.0368}, {"measurement": "viability", "setting": "[11]; 0.00032 µM", "value": 1.04}, {"measurement": "viability", "setting": "[11]; 0.0016 µM", "value": 0.817}, {"measurement": "viability", "setting": "[11]; 0.008 µM", "value": 0.103}, {"measurement": "viability", "setting": "[11]; 0.04 µM", "value": 0.0584}, {"measurement": "viability", "setting": "[11]; 0.2 µM", "value": 0.0681}, {"measurement": "viability", "setting": "[12]; 0.00032 µM", "value": 0.91}, {"measurement": "viability", "setting": "[12]; 0.0016 µM", "value": 0.807}, {"measurement": "viability", "setting": "[12]; 0.008 µM", "value": 0.0756}, {"measurement": "viability", "setting": "[12]; 0.04 µM", "value": 0.055}, {"measurement": "viability", "setting": "[12]; 0.2 µM", "value": 0.073}, {"measurement": "viability", "setting": "[13]; 0.00032 µM", "value": 1}, {"measurement": "viability", "setting": "[13]; 0.0016 µM", "value": 0.948}, {"measurement": "viability", "setting": "[13]; 0.008 µM", "value": 0.63}, {"measurement": "viability", "setting": "[13]; 0.04 µM", "value": 0.564}, {"measurement": "viability", "setting": "[13]; 0.2 µM", "value": 0.538}, {"measurement": "viability", "setting": "[14]; 0.00032 µM", "value": 1.07}, {"measurement": "viability", "setting": "[14]; 0.0016 µM", "value": 0.717}, {"measurement": "viability", "setting": "[14]; 0.008 µM", "value": 0.0898}, {"measurement": "viability", "setting": "[14]; 0.04 µM", "value": 0.061}, {"measurement": "viability", "setting": "[14]; 0.2 µM", "value": 0.0838}, {"measurement": "viability", "setting": "[15]; 0.00032 µM", "value": 0.92}, {"measurement": "viability", "setting": "[15]; 0.0016 µM", "value": 0.83}, {"measurement": "viability", "setting": "[15]; 0.008 µM", "value": 0.369}, {"measurement": "viability", "setting": "[15]; 0.04 µM", "value": 0.0933}, {"measurement": "viability", "setting": "[15]; 0.2 µM", "value": 0.084}, {"measurement": "viability", "setting": "[16]; 0.00032 µM", "value": 0.968}, {"measurement": "viability", "setting": "[16]; 0.0016 µM", "value": 0.84}, {"measurement": "viability", "setting": "[16]; 0.008 µM", "value": 0.543}, {"measurement": "viability", "setting": "[16]; 0.04 µM", "value": 0.263}, {"measurement": "viability", "setting": "[16]; 0.2 µM", "value": 0.206}, {"measurement": "viability", "setting": "[17]; 0.00032 µM", "value": 0.978}, {"measurement": "viability", "setting": "[17]; 0.0016 µM", "value": 0.911}, {"measurement": "viability", "setting": "[17]; 0.008 µM", "value": 0.642}, {"measurement": "viability", "setting": "[17]; 0.04 µM", "value": 0.498}, {"measurement": "viability", "setting": "[17]; 0.2 µM", "value": 0.527}, {"measurement": "viability", "setting": "[18]; 0.00032 µM", "value": 0.951}, {"measurement": "viability", "setting": "[18]; 0.0016 µM", "value": 0.191}, {"measurement": "viability", "setting": "[18]; 0.008 µM", "value": 0.0849}, {"measurement": "viability", "setting": "[18]; 0.04 µM", "value": 0.0845}, {"measurement": "viability", "setting": "[18]; 0.2 µM", "value": 0.0907}, {"measurement": "viability", "setting": "[19]; 0.00032 µM", "value": 0.923}, {"measurement": "viability", "setting": "[19]; 0.0016 µM", "value": 0.968}, {"measurement": "viability", "setting": "[19]; 0.008 µM", "value": 0.0338}, {"measurement": "viability", "setting": "[19]; 0.04 µM", "value": 0.0187}, {"measurement": "viability", "setting": "[19]; 0.2 µM", "value": 0.0209}, {"measurement": "viability", "setting": "[20]; 0.00032 µM", "value": 0.904}, {"measurement": "viability", "setting": "[20]; 0.0016 µM", "value": 0.298}, {"measurement": "viability", "setting": "[20]; 0.008 µM", "value": 0.118}, {"measurement": "viability", "setting": "[20]; 0.04 µM", "value": 0.0914}, {"measurement": "viability", "setting": "[20]; 0.2 µM", "value": 0.0996}]}
